pKi: −log10 of the molar value. Where a SMILES comes first, the peptide text is derived from it. Bridges are numbered along the chain shown (N, C = ends).
Columns and labels:
[1] = tested on: slo-1 null worms (NM1968, js379); experiment: C. elegans crawl speed, slo-1 null; type: in vivo, Caenorhabditis elegans; settings: for effect on crawl speed (LS3 reduced crawl speed for wild type but not slo-1(null)): 30 min
Protocol: (§1) Worms were cultivated at 20 °C as described with OP50 bacteria. Worms cultured on plates contaminated with fungi or other bacteria were excluded from this study. The reference wild-type strain was N2 Bristol. The reference slo-1(null) strain and background for transgenic strains was NM1968, harboring the previously characterized null allele, js379[29]. Multi-site gateway technology (Invitrogen) was used to construct plasmids. […] of the native slo-1 promoter (Pslo-1) and the traditional unc-54 UTR were used in combination with slo-1a(cDNA)::mCherry for a rescue construct. To test rescue with the human BK channel, an hslo(ZERO isoform, cDNA)::mCherry version was constructed. The slo-1(+) and hslo(+) plasmids were injected at a concentration of 20 and 10 ng/μl, respectively. The co-injection reporter PCFJ90 (1.25 ng/μl) was used to ensure proper transformation of the arrays. As such, JPS345 carried vxEx345, an extrachromosomal array containing [Pslo-1::slo-1::mCherry::unc-54UTR,Pmyo-2::mCherry::unc-54UTR]. JPS340 carried […], an extrachromosomal array containing [Pslo-1::hslo::mCherry::unc-54UTR,Pmyo-2::mCherry::unc-54UTR].
Age-matched day one adults were cleaned of bacteria by letting them crawl around on an unseeded plate and then moved into a puddle of NGM or peptide dissolved in NGM on another unseeded plate. NGM and peptide treatment groups were always run in tandem to control for behavioral variance. While much shorter than typical drug applications in C. elegans, brief application in liquid was chosen to avoid potential catabolic by-products of incubation on metabolically active E. coli. Higher LS3 concentrations were used to compensate. The puddle was refreshed 1–2 times as needed, but let to fully absorb into the agar by 30 minutes. After 30 minutes, crawl behavior was videoed (Flea2 camera, Point Grey Research, Canada; StreamPix 3, NorPix, Canada). Copper rings restricted movement to a proscribed area. The worms were tracked offline using custom macros (Image-Pro, MediaCybernetics, Rockville, MD) for 1 minute to obtain crawl speed (cm/min). Group means ± SEM for peptide-treated vs. vehicle-treated controls were compared at each concentration with Student’s t-tests. Rescue analysis was completed with two-way ANOVA (SigmaPlot, San Jose, CA). Crawl speeds for the peptide treated groups were also normalized to the performance of yoked controls. Normalized group means±SEM were compared vs. slo-1 null performance by two-way ANOVA.

[2] = tested on: hslo(+) human BK channel gene (ZERO isoform) expressed in slo-1(null) worms; experiment: C. elegans crawl speed, hslo(+) rescue on slo-1 null background; type: in vivo, Caenorhabditis elegans; settings: 750 μM LS3, 30 min; transgenic hslo(+) on slo-1(null) background; vs. slo-1(null): p < 0.001, N = 78–162
Protocol: as §1
Age-matched day one adults were cleaned of bacteria by letting them crawl around on an unseeded plate and then moved into a puddle of NGM or peptide dissolved in NGM on another unseeded plate. […]

[3] = tested on: 33 mammalian CNS targets; experiment: NIMH-PDSP competition binding panel, all targets
Protocol: (§2) LS3 was screened against a comprehensive panel of CNS-based proteins. Detailed protocols can be found within the US National Institute of Mental Health Psychoactive Drug Screening Program (NIMH PDSP) Assay Protocol Book (version II), by B. L. Roth, March 2013 (available at: http://pdsp.med.unc.edu/PDSP%20Protocols%20II%202013-03-28.pdf). […] Radioactivity in the presence of the LS3 (sample) was calculated with the following equation and expressed as a percent inhibition: % inhibition = (sample CPM – non-specific CPM)/Total CPM – non-specific CPM) × 100. Total binding was measured with no competing ligand. Non-specific binding was measured in the presence of reference compound. The % inhibition by LS3 was measured 4 times for each receptor.

[4] = tested on: mAcetylcholine M3; experiment: Competition radioligand binding (NIMH PDSP); settings: radioligand QNB, measured 4 times
[5] = tested on: GABAA; experiment: Competition radioligand binding (NIMH PDSP); settings: radioligand Muscimol, measured 4 times
Protocol: as §2

[6] = tested on: NET; experiment: Competition radioligand binding (NIMH PDSP); settings: radioligand Nisoxetine, measured 4 times
Protocol: as §2

[7] = tested on: 5HT 2B; experiment: Competition radioligand binding (NIMH PDSP); settings: radioligand LSD, measured 4 times
Protocol: as §2

[8] = tested on: Sigma 2; experiment: Competition radioligand binding (NIMH PDSP); settings: radioligand DTG, measured 4 times
Protocol: as §2

[9] = tested on: Opioid MOR; experiment: Competition radioligand binding (NIMH PDSP); settings: radioligand DAMGO, measured 4 times
Protocol: as §2

[10] = tested on: hERG; experiment: Competition radioligand binding (NIMH PDSP); settings: human, probe Dofetilide (radioligand), measured 4 times, read-out: % inhibition by 10 µM LS3
Protocol: as §2

[11] = tested on: 5HT 1B; experiment: Competition radioligand binding (NIMH PDSP); settings: radioligand GR127543, measured 4 times
Protocol: as §2

[12] = tested on: BZP rat brain site; experiment: Competition radioligand binding (NIMH PDSP); settings: radioligand Flunitrazepam, measured 4 times
Protocol: as §2

[13] = tested on: Histamine H3; experiment: Competition radioligand binding (NIMH PDSP); settings: radioligand α-methylhistamine, measured 4 times
Protocol: as §2

[14] = tested on: Dopamine D1; experiment: Competition radioligand binding (NIMH PDSP); settings: radioligand SCH233930, measured 4 times
Protocol: as §2

[15] = tested on: Opioid DOR; experiment: Competition radioligand binding (NIMH PDSP); settings: radioligand DADLE, measured 4 times
Protocol: as §2

[16] = tested on: 5HT 1A; experiment: Competition radioligand binding (NIMH PDSP); settings: radioligand 8-OH-DPAT, measured 4 times
Protocol: as §2

[17] = tested on: 5HT 2A; experiment: Competition radioligand binding (NIMH PDSP); settings: radioligand Ketanserin, measured 4 times
Protocol: as §2

[18] = tested on: Dopamine D2; experiment: Competition radioligand binding (NIMH PDSP); settings: radioligand N-methylspiperone, measured 4 times
Protocol: as §2

[19] = tested on: Histamine H1; experiment: Competition radioligand binding (NIMH PDSP); settings: radioligand Pyrilamine, measured 4 times
Protocol: as §2

[20] = tested on: Adrenergic Alpha1A; experiment: Competition radioligand binding (NIMH PDSP); settings: radioligand Prazosin, measured 4 times
Protocol: as §2

[21] = tested on: SERT; experiment: Competition radioligand binding (NIMH PDSP); settings: radioligand Citalopram, measured 4 times
Protocol: as §2

[22] = tested on: Adrenergic Alpha2A; experiment: Competition radioligand binding (NIMH PDSP); settings: radioligand Clonidine, measured 4 times
Protocol: as §2

CC(C)C[C@@H]1NC(=O)CNC(=O)[C@H](CCCNC(=N)N)NC(=O)[C@H](CCCNC(=N)N)NC(=O)[C@@H](N)CSSC[C@@H](C(=O)O)NC(=O)[C@H](C(C)C)NC(=O)[C@H](CCC(N)=O)NC(=O)[C@H](C(C)C)NC1=O [LS3] (H-CRRGLVQVC-OH; disulfide 1-9; N-terminus and C-terminus assumed)
effect on crawl speed (LS3 reduced crawl speed for wild type but not slo-1(null)) ([1]; 75 µM LS3 vs. vehicle): not
effect on crawl speed (LS3 reduced crawl speed for wild type but not slo-1(null)) ([1]; 250 µM LS3 vs. vehicle): not
effect on crawl speed (LS3 reduced crawl speed for wild type but not slo-1(null)) ([1]; 750 µM LS3 vs. vehicle): not
effect on crawl speed ([1]; slo-1 null, LS3 in NGM, 30 min bath, normalized to vehicle-treated controls): did not significantly slow
LS3-induced slowing response (reduction in crawl speed) [2]: rescued the LS3-induced slowing response
interaction with known ligand binding sites on 33 mammalian CNS targets ([3]; 10 microM LS3): does not have high affinity interactions
inhibition of radioligand binding ([3]; 10 microM LS3, all 33 targets, printed 'substantially less than 50%', each measured 4 times): less than 50%
pKi ([3]; inferred from less than 50% inhibition at 10 microM LS3, array of CNS targets): < 5.00
% inhibition by 10 µM LS3 [4]: 11.5%
% inhibition by 10 µM LS3 [5]: 19.3%
% inhibition by 10 µM LS3 [6]: 6.7%
% inhibition by 10 µM LS3 [7]: 3.2%
% inhibition by 10 µM LS3 [8]: 24.3%
% inhibition by 10 µM LS3 [9]: 2.2%
inhibition at 10 µM [10]: 21.2%
% inhibition by 10 µM LS3 [11]: 2.8%
% inhibition by 10 µM LS3 [12]: 5.1%
% inhibition by 10 µM LS3 [13]: 5.1%
% inhibition by 10 µM LS3 [14]: 15.7%
% inhibition by 10 µM LS3 [15]: 1.9%
% inhibition by 10 µM LS3 [16]: 11.4%
% inhibition by 10 µM LS3 [17]: 16.2%
% inhibition by 10 µM LS3 [18]: 20.9%
% inhibition by 10 µM LS3 [19]: 14.8%
% inhibition by 10 µM LS3 [20]: 11.3%
% inhibition by 10 µM LS3 [21]: 0.1%
% inhibition by 10 µM LS3 [22]: 3.2%
